Data published in ChEMBL document CHEMBL3045211, “Acute and chronic anti-inflammatory evaluation of imidazo[1,2-a]pyridine carboxylic acid derivatives and docking analysis” (Med Chem Res, 2012).
Activity calls are given as the source filed them. The rule behind the calls is not given here.

Columns and labels:
[1] = system: Rattus norvegicus; assay: Ulcerogenic activity in Rattus norvegicus Wistar (rat) stomach at 5 mg/kg, po relative to vehicle-treated control; type: toxicity, organism-based; set-up: dose 5 mg/kg, route oral; conditions: in vivo
[2] = system: Rattus norvegicus; assay: Gastrointestinal toxicity in Rattus norvegicus Wistar (rat) duodenum assessed as appearance of redness at 5 mg/kg, po relative to vehicle-treated control; type: organism-based; set-up: dose 5 mg/kg, route oral; conditions: in vivo
[3] = system: Rattus norvegicus; assay: Gastrointestinal toxicity in Rattus norvegicus Wistar (rat) stomach assessed as appearance of redness at 5 mg/kg, po relative to vehicle-treated control; type: organism-based; set-up: dose 5 mg/kg, route oral; conditions: in vivo
[4] = system: Rattus norvegicus; assay: Toxicity in Rattus norvegicus Wistar (rat) assessed as mortality at 5 mg/kg, po administered for 7 days measured on day 8; type: organism-based; set-up: dose 5 mg/kg, route oral; conditions: in vivo, 168 h
[5] = system: Rattus norvegicus; assay: Anti-inflammatory activity in Rattus norvegicus Wistar (rat) assessed as cotton pellet-induced final granuloma weight at 5 mg/kg, po administered for 7 days measured on day 8 (reference value: 110.3 +/- 8.7 mg); type: functional
[6] = system: Rattus norvegicus; assay: Anti-inflammatory activity in Rattus norvegicus Wistar (rat) assessed as inhibition of carrageenan-induced paw edema administered for 1 hr followed by carrageenan challenge measured at 4 hr relative to control; type: functional
[7] = system: Rattus norvegicus; assay: Anti-inflammatory activity in Rattus norvegicus Wistar (rat) assessed as inhibition of carrageenan-induced paw edema administered for 1 hr followed by carrageenan challenge measured at 3 hr relative to control; type: functional
[8] = system: Rattus norvegicus; assay: Anti-inflammatory activity in Rattus norvegicus Wistar (rat) assessed as inhibition of carrageenan-induced paw edema administered for 1 hr followed by carrageenan challenge measured at 2 hr relative to control; type: functional
[9] = system: Rattus norvegicus; assay: Anti-inflammatory activity in Rattus norvegicus Wistar (rat) assessed as inhibition of carrageenan-induced paw edema administered for 1 hr followed by carrageenan challenge measured at 1 hr relative to control; type: functional
[10] = organism: Rattus norvegicus; assay: Toxicity in Rattus norvegicus Wistar (rat); type: organism-based; conditions: in vivo
[11] = target: T1, Prostaglandin G/H synthase 1 (Homo sapiens, UniProt P23219); assay: Inhibition of COX1 (unknown origin)
T1 sequence (P23219 whole entry): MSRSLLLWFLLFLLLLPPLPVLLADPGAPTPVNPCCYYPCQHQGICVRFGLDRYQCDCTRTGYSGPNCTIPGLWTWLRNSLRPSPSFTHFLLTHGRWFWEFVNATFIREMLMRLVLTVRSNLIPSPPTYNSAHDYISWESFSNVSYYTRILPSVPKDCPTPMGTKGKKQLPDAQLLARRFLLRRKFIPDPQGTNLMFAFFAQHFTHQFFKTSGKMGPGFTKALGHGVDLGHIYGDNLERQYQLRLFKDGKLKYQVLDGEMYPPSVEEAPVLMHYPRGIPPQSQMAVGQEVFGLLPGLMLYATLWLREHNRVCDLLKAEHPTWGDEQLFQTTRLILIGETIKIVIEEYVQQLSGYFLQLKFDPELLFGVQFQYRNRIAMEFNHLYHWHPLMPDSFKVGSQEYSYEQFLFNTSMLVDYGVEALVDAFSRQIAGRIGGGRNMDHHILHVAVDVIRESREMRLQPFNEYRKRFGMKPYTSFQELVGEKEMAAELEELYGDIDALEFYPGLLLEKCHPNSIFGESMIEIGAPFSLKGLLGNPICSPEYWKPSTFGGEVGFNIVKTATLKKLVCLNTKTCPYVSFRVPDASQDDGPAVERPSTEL

[12] = system: Rattus norvegicus; assay: Anti-inflammatory activity in Rattus norvegicus Wistar (rat) assessed as inhibition of carrageenan-induced paw edema at 10 mg/kg administered for 1 hr followed by carrageenan challenge measured at 1 hr relative to control; type: functional
[13] = system: Rattus norvegicus; assay: Anti-inflammatory activity in Rattus norvegicus Wistar (rat) assessed as decrease in cotton pellet-induced final granuloma weight at 10 mg/kg, po administered for 7 days measured on day 8; type: functional, organism-based; set-up: dose 10 mg/kg
[14] = system: Rattus norvegicus; assay: Anti-inflammatory activity in Rattus norvegicus Wistar (rat) assessed as decrease in cotton pellet-induced dry granuloma weight at 10 mg/kg, po administered for 7 days measured on day 8; type: functional, organism-based; set-up: dose 10 mg/kg
[15] = system: Rattus norvegicus; assay: Anti-inflammatory activity in Rattus norvegicus Wistar (rat) assessed as decrease in cotton pellet-induced wet granuloma weight at 10 mg/kg, po administered for 7 days measured on day 8; type: functional, organism-based; set-up: dose 10 mg/kg
[16] = system: Rattus norvegicus; assay: Anti-inflammatory activity in Rattus norvegicus Wistar (rat) assessed as inhibition of carrageenan-induced paw edema at 10 mg/kg administered for 1 hr followed by carrageenan challenge measured at 4 hr relative to control; type: functional
[17] = system: Rattus norvegicus; assay: Anti-inflammatory activity in Rattus norvegicus Wistar (rat) assessed as inhibition of carrageenan-induced paw edema at 10 mg/kg administered for 1 hr followed by carrageenan challenge measured at 3 hr relative to control; type: functional
[18] = system: Rattus norvegicus; assay: Anti-inflammatory activity in Rattus norvegicus Wistar (rat) assessed as inhibition of carrageenan-induced paw edema at 10 mg/kg administered for 1 hr followed by carrageenan challenge measured at 2 hr relative to control; type: functional
[19] = target: T1, Prostaglandin G/H synthase 1; assay: Binding affinity to COX1 (unknown origin)
[20] = target: T2, Prostaglandin G/H synthase 2 (Homo sapiens, UniProt P35354); assay: Binding affinity to COX2 (unknown origin)
T2 sequence (P35354 whole entry): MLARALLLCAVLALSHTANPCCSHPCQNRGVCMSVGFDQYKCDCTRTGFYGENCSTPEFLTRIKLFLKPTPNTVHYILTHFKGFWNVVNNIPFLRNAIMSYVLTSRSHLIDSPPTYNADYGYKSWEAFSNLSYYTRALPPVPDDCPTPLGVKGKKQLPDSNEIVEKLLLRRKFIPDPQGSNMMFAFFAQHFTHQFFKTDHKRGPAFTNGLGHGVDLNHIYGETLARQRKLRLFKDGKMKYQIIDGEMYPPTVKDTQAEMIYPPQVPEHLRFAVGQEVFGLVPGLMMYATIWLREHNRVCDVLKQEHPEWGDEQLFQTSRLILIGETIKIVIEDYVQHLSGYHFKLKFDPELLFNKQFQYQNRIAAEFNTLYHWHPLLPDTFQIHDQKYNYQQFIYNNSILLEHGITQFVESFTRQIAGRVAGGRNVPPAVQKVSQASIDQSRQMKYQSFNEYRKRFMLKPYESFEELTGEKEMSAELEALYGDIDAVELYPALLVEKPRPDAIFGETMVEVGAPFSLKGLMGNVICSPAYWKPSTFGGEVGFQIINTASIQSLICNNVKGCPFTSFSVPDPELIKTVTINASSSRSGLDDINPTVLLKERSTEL

[21] = target: T1, Prostaglandin G/H synthase 1; assay: Inhibition of COX1 (unknown origin) at 1 uM
[22] = system: Rattus norvegicus; assay: Ulcerogenic activity in Rattus norvegicus Wistar (rat) stomach at 10 mg/kg, po relative to vehicle-treated control; type: toxicity, organism-based; set-up: dose 10 mg/kg, route oral; conditions: in vivo
[23] = system: Rattus norvegicus; assay: Gastrointestinal toxicity in Rattus norvegicus Wistar (rat) duodenum assessed as appearance of redness at 10 mg/kg, po relative to vehicle-treated control; type: organism-based; set-up: dose 10 mg/kg, route oral; conditions: in vivo
[24] = target: T3, Prostaglandin G/H synthase 2 (Homo sapiens) (UniProt P35354); assay: Inhibition of COX2 (unknown origin) at 10 uM
T3 sequence (whole entry): T2 sequence (P35354 whole entry)

[25] = system: Rattus norvegicus; assay: Gastrointestinal toxicity in Rattus norvegicus Wistar (rat) stomach assessed as appearance of redness at 10 mg/kg, po relative to vehicle-treated control; type: organism-based; set-up: dose 10 mg/kg, route oral; conditions: in vivo
[26] = system: Rattus norvegicus; assay: Anti-inflammatory activity in Rattus norvegicus Wistar (rat) assessed as cotton pellet-induced final granuloma weight at 10 mg/kg, po administered for 7 days measured on day 8 (reference value: 110.3 +/- 8.7 mg); type: functional

SMILES	LD [10] [mg/kg]	inhibition [11]	inhibition in vivo at 10 mg/kg [12] [%]	Activity [13]	Activity [14]	Activity [15]	inhibition in vivo at 10 mg/kg [16] [%]	inhibition in vivo at 10 mg/kg [17] [%]	inhibition in vivo at 10 mg/kg [18] [%]	Kd [19] [µM]	Kd [20] [µM]	also measured
COc1ccc2c(c1)c(CC(=O)O)c(C)n2C(=O)c1ccc(Cl)cc1 [INDOMETHACIN]	–	–	–	–	–	–	–	–	–	–	–	Activity [1]: Toxic; Activity [2]: Toxic; Activity [3]: Toxic; Activity [4]: Toxic; Activity [5]: 42.3 mg; inhibition (INH) [6]: 74.6%; inhibition (INH) [7]: 77.3%; inhibition (INH) [8]: 65.5%; inhibition (INH) [9]: 62.6%
O=C(O)c1nc2ccccn2c1[N+](=O)[O-]	1000	inactive	57.2	Active	Active	Active	14.2	24.4	43.5	0.0156	0.0501	–
CCOC(=O)c1nc2ccccn2c1[N+](=O)[O-]	1000	inactive	54.2	–	–	–	14.2	25.4	43.1	1.04	0.227	–
CC(C(=O)O)c1ccc(-c2cn3ccccc3n2)cc1 (stereo unspecified) [MIROPROFEN]	–	–	–	–	–	–	–	–	–	0.185	0.0481	–
O=C(O)c1cn2ccccc2n1	1000	–	75.6	Active	Active	Active	74	69.4	62.5	1.54	0.652	inhibition [21]: 15.6%
Nc1c(C(=O)O)nc2ccccn12	1000	inactive	61.3	–	Active	Active	73.2	80.3	76.7	0.262	0.448	Activity [22]: Non-toxic; Activity [23]: Non-toxic; inhibition [24]: 20%; Activity [25]: Non-toxic; Activity [26]: 70.5 mg
